ChEMBL document CHEMBL5260811, “Drug development against tuberculosis: Impact of alkaloids” (Eur J Med Chem, 2017)
In brackets after ≈: the same amount, converted by molar mass. Starred links: 1 amine or outer side, 2 acyl side, 3 side chain; linkers in the order of their positions; H or OH if unused. Positions of bridges follow the written chain, without caps; N, C: chain ends. Non-standard residues stand in square brackets, D forms with d. Residues, ends and D or L forms follow the SMILES beside them. *: point of attachment. X1 = NC1=N[C@@H]([C@H](N[*:1])C(=O)[*:2])C[C@H](O)N1; ΔAla(Z-3-ureido) = NC(=O)N/C=C(\N)C(=O)O; β3hOrn = NCCC[C@H](N)CC(=O)*; Dap = NC[C@H](N)C(=O)O

How the values were obtained:
[1] = system: Mycobacterium tuberculosis; assay: Antimycobacterial activity against Mycobacterium tuberculosis Rv2163c harbouring pbpB gene; assay type: functional
[2] = system: Mycobacterium tuberculosis; assay: Antimycobacterial activity against Mycobacterium tuberculosis Rv2163c harbouring ftsI gene; assay type: functional
[3] = system: Mycobacterium tuberculosis; assay: microbe, parasite or virus in culture
[4] = system: Mycobacterium tuberculosis; assay: Antimycobacterial activity against Mycobacterium tuberculosis harbouring katG gene; assay type: functional
[5] = system: Mycobacterium tuberculosis; assay: microbe, parasite or virus in culture; remark: listed apart in the source
[6] = system: Mycobacterium tuberculosis; assay: Antimycobacterial activity against Mycobacterium tuberculosis harbouring rrs gene; assay type: functional
[7] = system: Mycobacterium tuberculosis; assay: Antimycobacterial activity against Mycobacterium tuberculosis Rv0005 harbouring gyrB gene; assay type: functional
[8] = system: Mycobacterium tuberculosis; assay: Antimycobacterial activity against Mycobacterium tuberculosis Rv0006 harbouring gyrA gene; assay type: functional
[9] = system: Mycobacterium tuberculosis; assay: Antimycobacterial activity against Mycobacterium tuberculosis Rv0701 harbouring rplC gene; assay type: functional
[10] = system: Mycobacterium tuberculosis; assay: Antimycobacterial activity against Mycobacterium tuberculosis Rv3790 harbouring DprE1 gene; assay type: functional
[11] = system: Mycobacterium tuberculosis; assay: Antimycobacterial activity against Mycobacterium tuberculosis Rv2068c harbouring blaC gene; assay type: functional
[12] = system: Mycobacterium tuberculosis; assay: Antimycobacterial activity against Mycobacterium tuberculosis Rv1484 harbouring inhA gene; assay type: functional
[13] = system: Mycobacterium tuberculosis; assay: Antimycobacterial activity against Mycobacterium tuberculosis harbouring pncA gene; assay type: functional
[14] = system: Mycobacterium tuberculosis; assay: Antimycobacterial activity against Mycobacterium tuberculosis Rv0667 harbouring rpoB gene; assay type: functional
[15] = system: Mycobacterium tuberculosis; assay: microbe, parasite or virus in culture; remark: listed apart in the source
[16] = system: Mycobacterium tuberculosis; assay: Antimycobacterial activity against Mycobacterium tuberculosis harbouring rpsL gene; assay type: functional
[17] = system: Mycobacterium tuberculosis; assay: Antimycobacterial activity against Mycobacterium tuberculosis Rv2196 harbouring qcrB gene; assay type: functional
[18] = system: Mycobacterium tuberculosis; assay: Antimycobacterial activity against multi-drug resistant Mycobacterium tuberculosis; assay type: functional
[19] = system: Mycobacterium tuberculosis; assay: Antimycobacterial activity against Mycobacterium tuberculosis harbouring vph gene; assay type: functional

Question: For `C[C@@H](O)[C@H]1C(=O)N2C(C(=O)O)=C(SCCNC=N)C[C@H]12` [IMIPENEM ANHYDROUS], which MIC [1] is on record?
Answer: 160 ng/mL (≈ 534 nM)

Question: And the MIC [2]?
Answer: 160 ng/mL (≈ 534 nM)

Question: Which results are given for `NNC(=O)c1ccncc1` [ISONIAZID]?
Answer: MIC [3]: 10 ng/mL (≈ 72.9 nM); MIC [4]: 10 ng/mL (≈ 72.9 nM); MIC [5]: 10 ng/mL (≈ 72.9 nM)

Question: Which MIC [6] does the source give for `NC[C@H]1O[C@H](O[C@H]2[C@H](O)[C@@H](O[C@H]3O[C@H](CO)[C@@H](O)[C@H](N)[C@H]3O)[C@H](N)C[C@@H]2N)[C@H](O)[C@@H](O)[C@@H]1O` [KANAMYCIN] here?
Answer: 1000 ng/mL (≈ 2060 nM)

Question: Which MIC [7] does the source give for `C[C@H]1COc2c(N3CCN(C)CC3)c(F)cc3c(=O)c(C(=O)O)cn1c23.C[C@H]1COc2c(N3CCN(C)CC3)c(F)cc3c(=O)c(C(=O)O)cn1c23.O` [LEVOFLOXACIN] here?
Answer: 500 ng/mL

Question: And the MIC [8]?
Answer: 500 ng/mL

Question: How did the MIC [9] turn out when `CC(=O)NC[C@H]1CN(c2ccc(N3CCOCC3)c(F)c2)C(=O)O1` [LINEZOLID] was run?
Answer: 500 ng/mL (≈ 1480 nM)

Question: For `O=c1nc(N2CCN(CC3CCCCC3)CC2)sc2c([N+](=O)[O-])cc(C(F)(F)F)cc12` [MACOZINONE], which MIC [10] is on record?
Answer: 0.3 ng/mL (≈ 0.657 nM)

Question: Which MIC [11] does the source give for `C[C@@H](O)[C@H]1C(=O)N2C(C(=O)O)=C(S[C@@H]3CN[C@H](C(=O)N(C)C)C3)[C@H](C)[C@H]12` [MEROPENEM] here?
Answer: 500 ng/mL (≈ 1300 nM)

Question: What about the MIC [1] of the same compound?
Answer: 500 ng/mL (≈ 1300 nM)

Question: What does the source list for `CC1COc2c(N3CCN(C)CC3)c(F)cc3c(=O)c(C(=O)O)cn1c23` (stereo unspecified) [OFLOXACIN]?
Answer: MIC [7]: 125 ng/mL (≈ 346 nM); MIC [8]: 125 ng/mL (≈ 346 nM)

Question: With `O=C([C@@H](O)CO)N1CC=C(c2c(F)cc(N3C[C@H](COc4ccon4)OC3=O)cc2F)CC1` [POSIZOLID] as the compound, how does the MIC [9] read?
Answer: 250 ng/mL (≈ 537 nM)

Question: With `CCCc1cc(C(N)=S)ccn1` [PROTIONAMIDE] as the compound, how does the MIC [12] read?
Answer: 300 ng/mL (≈ 1660 nM)

Question: Which MIC [13] does the source give for `NC(=O)c1cnccn1` [PYRAZINAMIDE] here?
Answer: 20000 ng/mL (≈ 162000 nM)

Question: For `CO[C@H]1/C=C/O[C@@]2(C)Oc3c(C)c(O)c4c(c3C2=O)C2=NC3(CCN(CC(C)C)CC3)NC2=C(NC(=O)/C(C)=C\C=C\[C@H](C)[C@H](O)[C@@H](C)[C@@H](O)[C@@H](C)[C@H](OC(C)=O)[C@@H]1C)C4=O` [RIFABUTIN], which MIC [14] is on record?
Answer: 15 ng/mL (≈ 17.7 nM)

Question: Which MIC [15] does the source give for `CO[C@H]1/C=C/O[C@@]2(C)Oc3c(C)c(O)c4c(O)c(c(/C=N/N5CCN(C)CC5)c(O)c4c3C2=O)NC(=O)/C(C)=C\C=C\[C@H](C)[C@H](O)[C@@H](C)[C@@H](O)[C@@H](C)[C@H](OC(C)=O)[C@@H]1C` [RIFAMPIN] here?
Answer: 50 ng/mL (≈ 60.8 nM)

Question: With `CO[C@H]1/C=C/O[C@@]2(C)Oc3c(C)c(O)c4c(O)c(c(/C=N/N5CCN(C6CCCC6)CC5)c(O)c4c3C2=O)NC(=O)/C(C)=C\C=C\[C@H](C)[C@H](O)[C@@H](C)[C@@H](O)[C@@H](C)[C@H](OC(C)=O)[C@@H]1C` [RIFAPENTINE] as the compound, how does the MIC [14] read?
Answer: 30 ng/mL (≈ 34.2 nM)

Question: For `CN[C@@H]1[C@H](O[C@H]2[C@H](O[C@H]3[C@H](O)[C@@H](O)[C@H](N=C(N)N)[C@@H](O)[C@@H]3N=C(N)N)O[C@@H](C)[C@]2(O)C=O)O[C@@H](CO)[C@H](O)[C@H]1O` [STREPTOMYCIN], which MIC [6] is on record?
Answer: 2000 ng/mL (≈ 3440 nM)

Question: And the MIC [16]?
Answer: 2000 ng/mL (≈ 3440 nM)

Question: `CC(=O)NC[C@H]1CN(c2ccc(N3CCSCC3)c(F)c2)C(=O)O1` [SUTEZOLID] was tested. Which MIC [9] did it give?
Answer: 500 ng/mL (≈ 1410 nM)

Question: `CCc1nc2ccc(Cl)cn2c1C(=O)NCc1ccc(N2CCC(c3ccc(OC(F)(F)F)cc3)CC2)cc1` [TELACEBEC] was tested. Which MIC [17] did it give?
Answer: 2.7 nM (≈ 1.5 ng/mL)

Question: With `O=C1c2ccccc2-n2c1nc1ccccc1c2=O` [TRYPTANTHRIN] as the compound, how does the MIC [18] read?
Answer: 0.016 ng/mL (≈ 0.0645 nM)

Question: For `NCCC[C@H](N)CC(=O)N[C@H]1CNC(=O)[C@H]([C@H]2C[C@H](O)NC(N)=N2)NC(=O)/C(=C/NC(N)=O)NC(=O)[C@H](CO)NC(=O)[C@H](CO)NC1=O` [VIOMYCIN] (β3hOrn-[Dap]SS[ΔAla(Z-3-ureido)][X1]; lactam 1-C), which MIC [19] is on record?
Answer: 4000 ng/mL (≈ 5830 nM)
